Molecules are shown by their SMILES.

One data set relates to IFNα-induced STAT phosphorylation (pSTAT5). Nature of the data set: IFNα-induced STAT phosphorylation in human whole blood. As to conditions: 1 h compound, 1000 U/mL IFNα A/D 15 min, CD3 positive population, read-out: Human Whole blood IFNa pSTAT5 IC50. In kind it is cell-based. On the procedure:
IFNα-Induced STAT Phosphorylation in Human Whole Blood
After an hour long incubation with compound, human whole blood (drawn with ACD-A as anticoagulant) was stimulated with 1000 U/mL recombinant human IFNα A/D (R&D Systems 11200-2) for 15 min. The stimulation was stopped by adding Fix/Lyse buffer (BD 558049). Cells were stained with a CD3 FITC antibody (BD 555916), washed, and permeabilized on ice using Perm III buffer (BD 558050). Cells were then stained with an Alexa-Fluor 647 pSTAT5 (pY694) antibody (BD 612599) for 60 min prior to analysis on the iQue Plus. The amount of pSTAT5 expression was quantitated by median fluorescence intensity after gating on the CD3 positive population.
The IC50 is the point on the concentration scale where inhibition reaches its midpoint. As for `[2H]C([2H])([2H])NC(=O)c1nnc(NC(=O)C2CC2)cc1Nc1ccc(C)c(-c2cnn(C)n2)c1OC` [Example 33, 6-(cyclopropanecarboxamido)-4-((2-methoxy-4-methyl-3-(2-methyl-2H-1,2,3-triazol-4-yl)phenyl)amino)-N-(methyl-d3)pyridazine-3-carboxamide], the 50% inhibitory concentration (IC50) amounted to 80 nM.

As to `[2H]C([2H])([2H])NC(=O)c1nnc(NC(=O)[C@H]2C[C@@H]2C)cc1Nc1nc(C)cc(-c2cnn(C)n2)c1OC` [Example 48, 4-((3-methoxy-6-methyl-4-(2-methyl-2H-1,2,3-triazol-4-yl)pyridin-2-yl)amino)-N-(methyl-d3)-6-((1S,2S)-2-methylcyclopropane-1-carboxamido)pyridazine-3-carboxamide], the IC50 is 6800 nM. `[2H]C([2H])([2H])NC(=O)c1nnc(N2CCN(C(C)C)C2=O)cc1Nc1cccc(-c2cnn(C)n2)c1OC` [Example 50, 6-(3-isopropyl-2-oxoimidazolidin-1-yl)-4-((2-methoxy-3-(2-methyl-2H-1,2,3-triazol-4-yl)phenyl)amino)-N-(methyl-d3)pyridazine-3-carboxamide]: the IC50 was 170 nM. The same measure, in the same setting: with `[2H]C([2H])([2H])NC(=O)c1nnc(NC(=O)C2CC2)cc1Nc1cc(F)c(C)c(-c2cnn(C)n2)c1OC` [Example 19, 6-(cyclopropanecarboxamido)-4-((5-fluoro-2-methoxy-4-methyl-3-(2-methyl-2H-1,2,3-triazol-4-yl)phenyl)amino)-N-(methyl-d3)pyridazine-3-carboxamide] the figure was 430 nM; with `CNC(=O)c1nnc(NC(=O)C2CC2)cc1Nc1cccc(-c2cnn(CCF)n2)c1OC` [Example 2, 6-cyclopropaneamido-4-({3-[2-(2-fluoroethyl)-2H-1,2,3-triazol-4-yl]-2-methoxyphenyl}amino)-N—(^2H3)methylpyridazine-3-carboxamide], 30 nM. As for `[2H]C([2H])([2H])NC(=O)c1nnc(NC(=O)[C@@H]2C[C@H]2C)cc1Nc1nc(C)cc(-c2cnn(C)n2)c1OC` [Example 47, 4-((3-methoxy-6-methyl-4-(2-methyl-2H-1,2,3-triazol-4-yl)pyridin-2-yl)amino)-N-(methyl-d3)-6-((1R,2R)-2-methylcyclopropane-1-carboxamido)pyridazine-3-carboxamide], the IC50 turned out to be 110 nM. Take `CNC(=O)c1nnc(NC(=O)C2CC2)cc1Nc1cccc(-c2cnn(C3CCC3)n2)c1OC` [Example 54, 4-{[3-(2-cyclobutyl-2H-1,2,3-triazol-4-yl)-2-methoxyphenyl]amino}-6-cyclopropaneamido-N—(^2H3)methylpyridazine-3-carboxamide]: the IC50 is 490 nM. On the same count and under the same terms, with `CNC(=O)c1nnc(NC(=O)C2CC2)cc1Nc1nccc(-c2cnn(C3CC3)n2)c1OC` [Example 14, 6-cyclopropaneamido-4-{[4-(2-cyclopropyl-2H-1,2,3-triazol-4-yl)-3-methoxypyridin-2-yl]amino}-N—(^2H3)methylpyridazine-3-carboxamide] the figure was 190 nM; with `CNC(=O)c1nnc(NC(=O)C2CC2)cc1Nc1cc(C)cc(-c2cnn(C)n2)c1OC` [Example 17, 6-cyclopropaneamido-4-{[2-methoxy-5-methyl-3-(2-methyl-2H-1,2,3-triazol-4-yl)phenyl]amino}-N—(^2H3)methylpyridazine-3-carboxamide], 40 nM; with `CNC(=O)c1nnc(NC(=O)C2CC2)cc1Nc1cccc(-c2cnn(C)n2)c1OC(F)F` [Example 56, 6-cyclopropaneamido-4-{[2-(difluoromethoxy)-3-(2-methyl-2H-1,2,3-triazol-4-yl)phenyl]amino}-N—(^2H3)methylpyridazine-3-carboxamide], 290 nM. In the case of `CNC(=O)c1nnc(NC(=O)C2CC2)cc1Nc1nccc(-c2cnn(C)n2)c1OC(F)F` [Example 60, 6-cyclopropaneamido-4-{[3-(difluoromethoxy)-4-(2-methyl-2H-1,2,3-triazol-4-yl)pyridin-2-yl]amino}-N—(^2H3)methylpyridazine-3-carboxamide], the half-inhibitory concentration (IC50) was 130 nM. The same measure, in the same setting: with `CNC(=O)c1nnc(NC(=O)C2CC2)cc1Nc1cccc(-c2cnn(C)n2)c1OC` [Example 52, 6-cyclopropaneamido-4-({2-methoxy-3-[2-(^2H3)methyl-2H-1,2,3-triazol-4-yl]phenyl}amino)-N—(^2H3)methylpyridazine-3-carboxamide] the figure was 20 nM. Regarding `CCn1ncc(-c2c(F)ccc(Nc3cc(NC(=O)C4CC4)nnc3C(=O)NC)c2OC)n1` [Example 10, 6-cyclopropaneamido-4-{[3-(2-ethyl-2H-1,2,3-triazol-4-yl)-4-fluoro-2-methoxyphenyl]amino}-N—(^2H3)methylpyridazine-3-carboxamide], the concentration for half-maximal inhibition (IC50) was 290 nM. With `CNC(=O)c1nnc(NC(=O)C2CC2)cc1Nc1ccc(C2CC2)c(-c2cnn(C)n2)c1OC` [Example 55, 6-cyclopropaneamido-4-{[4-cyclopropyl-2-methoxy-3-(2-methyl-2H-1,2,3-triazol-4-yl)phenyl]amino}-N—(^2H3)methylpyridazine-3-carboxamide], the half-inhibitory concentration (IC50) turned out to be 480 nM.

Consider `CCN(C)C(=O)Nc1cc(Nc2nccc(-c3cnn(C)n3)c2OC)c(C(=O)NC)nn1` [Example 58, 6-{[ethyl(methyl)carbamoyl]amino}-4-{[3-methoxy-4-(2-methyl-2H-1,2,3-triazol-4-yl)pyridin-2-yl]amino}-N—(^2H3)methylpyridazine-3-carboxamide], for which the IC50 was 230 nM. The same measure, in the same setting: with `CNC(=O)c1nnc(NC(=O)C2CC2)cc1Nc1cc(F)cc(-c2cnn(C3CC3)n2)c1OC` [Example 12, 6-cyclopropaneamido-4-{[3-(2-cyclopropyl-2H-1,2,3-triazol-4-yl)-5-fluoro-2-methoxyphenyl]amino}-N—(^2H3)methylpyridazine-3-carboxamide] the figure was 230 nM; with `CNC(=O)c1nnc(NC(=O)C2CC2)cc1Nc1ccc(F)c(-c2cnn(C3CC3)n2)c1OC` [Example 16, 6-cyclopropaneamido-4-{[3-(2-cyclopropyl-2H-1,2,3-triazol-4-yl)-4-fluoro-2-methoxyphenyl]amino}-N—(^2H3)methylpyridazine-3-carboxamide], 1400 nM; with `CNC(=O)c1nnc(NC(=O)C2CC2)cc1Nc1cccc(-c2cnn(CC(F)F)n2)c1OC` [Example 3, 6-cyclopropaneamido-4-({3-[2-(2,2-difluoroethyl)-2H-1,2,3-triazol-4-yl]-2-methoxyphenyl}amino)-N—(^2H3)methylpyridazine-3-carboxamide], 220 nM. The same measure, in the same setting: to `CNC(=O)c1nnc(NC(=O)C2CC2)cc1Nc1cccc(-c2cnn(C3COC3)n2)c1OC` [Example 53, 6-cyclopropaneamido-4-({2-methoxy-3-[2-(oxetan-3-yl)-2H-1,2,3-triazol-4-yl]phenyl}amino)-N—(^2H3)methylpyridazine-3-carboxamide] belongs 170 nM. For `CNC(=O)c1nnc(NC(=O)[C@@H]2CC23CC3)cc1Nc1cccc(-c2cnn(C)n2)c1OC` [Example 13, 4-{[2-methoxy-3-(2-methyl-2H-1,2,3-triazol-4-yl)phenyl]amino}-N—(^2H3)methyl-6-[(1R)-spiro[2.2]pentane-1-amido]pyridazine-3-carboxamide], the IC50 was determined as 170 nM. As for `CNC(=O)c1nnc(NC(=O)N(C)C(C)C)cc1Nc1nccc(-c2cnn(C)n2)c1OC` [Example 59, 4-{[3-methoxy-4-(2-methyl-2H-1,2,3-triazol-4-yl)pyridin-2-yl]amino}-N—(^2H3)methyl-6-{[methyl(propan-2-yl)carbamoyl]amino}pyridazine-3-carboxamide], the concentration for half-maximal inhibition (IC50) worked out at 250 nM.

Consider `CNC(=O)c1nnc(NC(=O)C2CC2)cc1Nc1ccc(F)c(-c2cnn(C)n2)c1OC` [Example 18, 6-cyclopropaneamido-4-{[4-fluoro-2-methoxy-3-(2-methyl-2H-1,2,3-triazol-4-yl)phenyl]amino}-N—(^2H3)methylpyridazine-3-carboxamide], for which the IC50 came out at 230 nM. As for `CNC(=O)c1nnc(NC(=O)N2CCC2)cc1Nc1cccc(-c2cnn(C)n2)c1OC` [Example 51, 6-[(azetidine-1-carbonyl)amino]-4-{[2-methoxy-3-(2-methyl-2H-1,2,3-triazol-4-yl)phenyl]amino}-N—(^2H3)methylpyridazine-3-carboxamide], the IC50 was 110 nM. Same read-out and setting: with `CCn1ncc(-c2cc(Cl)cc(Nc3cc(NC(=O)C4CC4)nnc3C(=O)NC)c2OC)n1` [Example 15, 4-{[5-chloro-3-(2-ethyl-2H-1,2,3-triazol-4-yl)-2-methoxyphenyl]amino}-6-cyclopropaneamido-N—(^2H3)methylpyridazine-3-carboxamide] the figure was 470 nM.

Test system in a further data set: not listed separately
Kind of data set: in vitro. To be noted: human, Caco-2, pH 7.4.
What is called Papp A→B is how fast a substance crosses the layer from the apical side. Read a high Papp A→B as ready permeation. Usually efflux ratio stands for the permeability from basolateral to apical divided by that in the opposite direction, in the common usage. In the case of `[2H]C([2H])([2H])NC(=O)c1nnc(NC(=O)C2CC2)cc1Nc1ccc(C)c(-c2cnn(C)n2)c1OC` [Example 33, 6-(cyclopropanecarboxamido)-4-((2-methoxy-4-methyl-3-(2-methyl-2H-1,2,3-triazol-4-yl)phenyl)amino)-N-(methyl-d3)pyridazine-3-carboxamide], the apical-to-basolateral permeability (Papp A→B) at 2 h, 3 μM was 34.5 ×10⁻⁶ cm/s and the efflux ratio at 2 h, 3 μM was found to be 0.8.

With `[2H]C([2H])([2H])NC(=O)c1nnc(NC(=O)[C@H]2C[C@@H]2C)cc1Nc1nc(C)cc(-c2cnn(C)n2)c1OC` [Example 48, 4-((3-methoxy-6-methyl-4-(2-methyl-2H-1,2,3-triazol-4-yl)pyridin-2-yl)amino)-N-(methyl-d3)-6-((1S,2S)-2-methylcyclopropane-1-carboxamido)pyridazine-3-carboxamide], the Papp A→B at 2 h, 3 μM was 30.1 ×10⁻⁶ cm/s and the efflux ratio at 2 h, 3 μM was 0.3.

On to `[2H]C([2H])([2H])NC(=O)c1nnc(N2CCN(C(C)C)C2=O)cc1Nc1cccc(-c2cnn(C)n2)c1OC` [Example 50, 6-(3-isopropyl-2-oxoimidazolidin-1-yl)-4-((2-methoxy-3-(2-methyl-2H-1,2,3-triazol-4-yl)phenyl)amino)-N-(methyl-d3)pyridazine-3-carboxamide], for which the Papp A→B at 2 h, 3 μM was 26.5 ×10⁻⁶ cm/s and the efflux ratio at 2 h, 3 μM is 0.4.

With `[2H]C([2H])([2H])NC(=O)c1nnc(NC(=O)C2CC2)cc1Nc1cc(F)c(C)c(-c2cnn(C)n2)c1OC` [Example 19, 6-(cyclopropanecarboxamido)-4-((5-fluoro-2-methoxy-4-methyl-3-(2-methyl-2H-1,2,3-triazol-4-yl)phenyl)amino)-N-(methyl-d3)pyridazine-3-carboxamide], the Papp A→B at 2 h, 3 μM came to 18.8 ×10⁻⁶ cm/s and the efflux ratio at 2 h, 3 μM was 0.7. `[2H]C([2H])([2H])NC(=O)c1nnc(NC(=O)[C@@H]2C[C@H]2C)cc1Nc1nc(C)cc(-c2cnn(C)n2)c1OC` [Example 47, 4-((3-methoxy-6-methyl-4-(2-methyl-2H-1,2,3-triazol-4-yl)pyridin-2-yl)amino)-N-(methyl-d3)-6-((1R,2R)-2-methylcyclopropane-1-carboxamido)pyridazine-3-carboxamide]: the Papp A→B at 2 h, 3 μM came to 34 ×10⁻⁶ cm/s and the efflux ratio at 2 h, 3 μM came out at 0.3.

One may read the Papp B→A as how fast a substance crosses the layer from the basolateral side. Take `CC(C)(C)NCC(O)COc1cccc2c1CC(O)C(O)C2` (stereo not shown) [Nadolol, reference compound]: the Papp A→B at 2 h, 3 μM was 2 ± 0.9 ×10⁻⁶ cm/s; the basolateral-to-apical permeability (Papp B→A) at 2 h, 3 μM came out at 2.5 ± 1.1 ×10⁻⁶ cm/s; the efflux ratio at 2 h, 3 μM is 1.3.

For the origin of these results see US11866414B2, “Substituted heterocyclic compounds” (BRISTOL-MYERS SQUIBB COMPANY, priority 2021, dated 2024).
